According to US20240306670A1, “BERBERINE ALKALOIDS IN THE PREVENTION AND/OR TREATMENT OF INTESTINAL DISEASE” (priority 2017, published 2024):

Assay: Feed palatability, feed and water consumption and bird productivity study (Example 2)
Type: in vivo, broiler chickens
Source text: A follow-up study to determine the feed palatability, feed and water consumption and bird productivity following incorporation of a single formulation of IRP001 hemisulfate salt (unmasked) when offered to broiler chickens in-feed or in-water. The study explores the optimal treatment regime in terms of treatment start date.
Phase 1: On receipt, two hundred and seventy (270) day-old commercial broiler chickens were allocated sequentially as they are received into sixteen (16) individual floor pens, each of 16 or 17 birds, on Day 0.
Phase 2: On receipt, the ninety (90) day-old commercial broiler chickens were allocated sequentially as they are received into four (4) individual floor pens, each of 22 or 23 birds, on Day 22.
Feed intake, water intake, weight gain and mortality were used as outcome parameters.
Individual daily feed intake and individual daily water intake data by pen and then by treatment group were calculated for Phases 1 and 2 (and for the entire trial for the birds in Group/Pen 2, 15 and 16 that continue through both Phases) using figures for total feed and water provided each day to each pen divided by the number of birds in each pen. Where errors in weighing, feeding/watering or recording (or other unexplained losses of feed and water) had occurred means were adjusted by using the mean value for the same pen on the 1-2 days either side of the apparent error. Similarly, group mean bodyweights were calculated for Phase 1 using total weight/total no. birds for Day 0 and individual weights from Days 7, 14, 21, 28, 35 and 42. Total (individual) feed consumed was calculated per treatment and feed conversion ratios per treatment calculated using the expression: total (individual) feed/total (individual) weight gain.
Individual daily feed intake and individual daily water intake were statistically compared by treatment within each phase and between Pens 2 and 15/16 over both phases using a linear model:—
and Tibco SPOTFIRE S+ 8.2 (2010). ‘Day’ was included in the model to allow for changes over time, ‘Pen’ as each treatment consisted of 2 pens while an interaction term ‘Treatment:Day’ was included to allow for treatment×time effects. Model suitability was confirmed by inspection of residual plots; in all instances the statistical model was appropriate.

[1] = Phase 1, IVP 1 g/L in-water Day 0-21, pens 3, 4
[2] = Phase 1, IVP 1 g/L in-water Day 1-21, pens 5, 6
[3] = Phase 1, IVP 1 g/L in-water Day 2-21, pens 7, 8
[4] = Phase 1, IVP 1 g/L in-water Day 3-21, pens 9, 10
[5] = Phase 1, IVP 1 g/L in-water Day 4-21, pens 11, 12
[6] = Phase 1, IVP 1 g/L in-water Day 5-21, pens 13, 14
[7] = Phase 1, IVP 1 g/L in-water Day 6-21 (42), pens 15, 16
[8] = Phase 2 (day-old chicks received Day 22), pens 19, 20, Day 25-42FEED (IVP in-feed)
[9] = Phase 2 summary, pens 15, 16, D6-21(42), IVP 1 g/L in-water, birds kept to day 42

In the case of `COc1ccc2cc3[n+](cc2c1OC)CCc1cc2c(cc1-3)OCO2` [IRP001 chloride, berberine chloride], the FCR [1] is reported as 1.49, the Gain [1] is reported as 0.610 kg and the “Group mean bodyweight Day 0” value [1] is reported as 43.2. The “Group mean bodyweight Day 7” value [1] was 118.1, the “Group mean bodyweight Day 14” value [1] was 291.9 and the “Group mean bodyweight Day 22” value [1] was 653.6. For the same compound, the “Total Feed” value [1] was 0.908 kg, the FCR [2] was 1.50 and the Gain [2] was 0.678 kg. The “Group mean bodyweight Day 0” value [2] was 42.4, the “Group mean bodyweight Day 7” value [2] was 125.8 and the “Group mean bodyweight Day 14” value [2] was 309.0. For the same compound, the “Group mean bodyweight Day 22” value [2] was 720.7, the “Total Feed” value [2] was 1.019 kg and the FCR [3] was 1.45. For the same compound, the Gain [3] was 0.675 kg, the “Group mean bodyweight Day 0” value [3] was 44.6 and the “Group mean bodyweight Day 7” value [3] was 132.0. The “Group mean bodyweight Day 14” value [3] was 315.4, the “Group mean bodyweight Day 22” value [3] was 719.4 and the “Total Feed” value [3] was 0.977 kg. The FCR [4] was 1.44, the Gain [4] was 0.653 kg and the “Group mean bodyweight Day 0” value [4] was 42.4. For the same compound, the “Group mean bodyweight Day 7” value [4] was 118.6, the “Group mean bodyweight Day 14” value [4] was 295.1 and the “Group mean bodyweight Day 22” value [4] was 695.7. The “Total Feed” value [4] was 0.939 kg, the FCR [5] was 1.46 and the Gain [5] was 0.716 kg. For the same compound, the “Group mean bodyweight Day 0” value [5] was 41.8, the “Group mean bodyweight Day 7” value [5] was 138.8 and the “Group mean bodyweight Day 14” value [5] was 320.3. For the same compound, the “Group mean bodyweight Day 22” value [5] was 758.2, the “Total Feed” value [5] was 1.046 kg and the FCR [6] was 1.48. For the same compound, the Gain [6] was 0.680 kg, the “Group mean bodyweight Day 0” value [6] was 44.3 and the “Group mean bodyweight Day 7” value [6] was 135.3. The “Group mean bodyweight Day 14” value [6] was 316.8, the “Group mean bodyweight Day 22” value [6] was 724.7 and the “Total Feed” value [6] was 1.010 kg. For the same compound, the FCR [7] was 1.40, the Gain [7] was 0.723 kg and the “Group mean bodyweight Day 0” value [7] was 43.8. For the same compound, the “Group mean bodyweight Day 7” value [7] was 139.1, the “Group mean bodyweight Day 14” value [7] was 325.2 and the “Group mean bodyweight Day 22” value [7] was 767.2. For the same compound, the “Total Feed” value [7] was 1.016 kg, the “Bodyweight Day 28” value [8] was 112.4 g and the “Bodyweight Day 35” value [8] was 273.6 g. The “Bodyweight Day 42” value [8] was 614.9 g, the FCR [8] was 1.56 and the Feed [8] was 0.783 kg. The Gain [8] was 0.502 kg, the “Bodyweight Day 28” value [9] was 1.16 kg and the “Bodyweight Day 35” value [9] was 1.66 kg. The “Bodyweight Day 42” value [9] was 2.39 kg, the FCR [9] was 1.64 and the Feed [9] was 3.841 kg. It also gave a Gain [9] of 2.346 kg.
